Results taken from PubChem BioAssay (NCI).
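Cells were grown in 96-well plates and exposed to each compound for 48 hours at five concentrations; endpoints were interpolated linearly between bracketing concentrations, or set to the highest concentration if not reached. At the GI50, growth is halved. TGI: concentration producing complete growth inhibition.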

What was measured:
Assay in all cases: inhibition of tumour cell growth, NCI panel, 48 h
CCRF-CEM leukemia = tested on: CCRF-CEM leukemia
RPMI-8226 leukemia = tested on: RPMI-8226 leukemia
UACC-62 melanoma = tested on: UACC-62 melanoma
UO-31 renal = tested on: UO-31 renal
MOLT-4 leukemia = tested on: MOLT-4 leukemia
DU-145 prostate = tested on: DU-145 prostate
SK-OV-3 ovarian = tested on: SK-OV-3 ovarian
MDA-MB-435 = tested on: MDA-MB-435
HT29 colon = tested on: HT29 colon
A549 NSCLC = tested on: A549 NSCLC
CAKI-1 renal = tested on: CAKI-1 renal
U251 CNS = tested on: U251 CNS
SF-539 CNS = tested on: SF-539 CNS
SK-MEL-28 melanoma = tested on: SK-MEL-28 melanoma
SN12C renal = tested on: SN12C renal
NCI-H522 lung = tested on: NCI-H522 lung
MDA-MB-231 breast = tested on: MDA-MB-231 breast
UACC-257 melanoma = tested on: UACC-257 melanoma
NCI/ADR-RES ovarian = tested on: NCI/ADR-RES ovarian
ACHN renal = tested on: ACHN renal
K-562 leukemia = tested on: K-562 leukemia
MALME-3M melanoma = tested on: MALME-3M melanoma
BT-549 breast = tested on: BT-549 breast
RXF 393 renal = tested on: RXF 393 renal
HCC-2998 colon = tested on: HCC-2998 colon
MCF7 breast = tested on: MCF7 breast
HOP-92 NSCLC = tested on: HOP-92 NSCLC
EKVX NSCLC = tested on: EKVX NSCLC
OVCAR-3 ovarian = tested on: OVCAR-3 ovarian
OVCAR-8 ovarian = tested on: OVCAR-8 ovarian
IGROV1 ovarian = tested on: IGROV1 ovarian
OVCAR-5 ovarian = tested on: OVCAR-5 ovarian
SW-620 colon = tested on: SW-620 colon
NCI-H226 lung = tested on: NCI-H226 lung
HCT-116 colon = tested on: HCT-116 colon
COLO 205 colon = tested on: COLO 205 colon
LOX IMVI melanoma = tested on: LOX IMVI melanoma
HOP-62 NSCLC = tested on: HOP-62 NSCLC
TK-10 renal = tested on: TK-10 renal
SNB-75 CNS = tested on: SNB-75 CNS
NCI-H460 lung = tested on: NCI-H460 lung
786-0 renal = tested on: 786-0 renal
SF-268 CNS = tested on: SF-268 CNS
SNB-19 CNS = tested on: SNB-19 CNS
M14 melanoma = tested on: M14 melanoma
NCI-H23 lung = tested on: NCI-H23 lung
A498 renal = tested on: A498 renal
HS 578T breast = tested on: HS 578T breast
SK-MEL-5 melanoma = tested on: SK-MEL-5 melanoma
HCT-15 colon = tested on: HCT-15 colon
SF-295 CNS = tested on: SF-295 CNS
T-47D breast = tested on: T-47D breast
KM12 colon = tested on: KM12 colon
PC-3 prostate = tested on: PC-3 prostate
SK-MEL-2 melanoma = tested on: SK-MEL-2 melanoma

With `O=C(O)[C@@H]1CCCN1Cc1cc2cc3c(cc2c2cc(OCc4ccccc4)ccc12)OCO3` the GI50 (CCRF-CEM leukemia) was 23.2 µM, the TGI (CCRF-CEM leukemia) was > 100 µM and the GI50 (RPMI-8226 leukemia) was 17 µM. It also gave a TGI (RPMI-8226 leukemia) of 60.9 µM, a GI50 (UACC-62 melanoma) of 16.8 µM and a TGI (UACC-62 melanoma) of 33.2 µM. For the same compound, the GI50 (UO-31 renal) was 24.3 µM, the TGI (UO-31 renal) was > 100 µM and the GI50 (MOLT-4 leukemia) was 30.7 µM. For the same compound, the TGI (MOLT-4 leukemia) was > 100 µM, the GI50 (DU-145 prostate) was 19.4 µM and the TGI (DU-145 prostate) was 65.9 µM. It also gave a GI50 (SK-OV-3 ovarian) of 32.4 µM, a TGI (SK-OV-3 ovarian) of 81.3 µM and a GI50 (MDA-MB-435) of 23.4 µM. It also gave a TGI (MDA-MB-435) of 58.4 µM, a GI50 (HT29 colon) of 18 µM and a TGI (HT29 colon) of 37.2 µM. The GI50 (A549 NSCLC) was 27.1 µM, the TGI (A549 NSCLC) was > 100 µM and the GI50 (CAKI-1 renal) was 20.3 µM. For the same compound, the TGI (CAKI-1 renal) was 53.6 µM, the GI50 (U251 CNS) was 30.1 µM and the TGI (U251 CNS) was > 100 µM. It also gave a GI50 (SF-539 CNS) of 25.1 µM, a TGI (SF-539 CNS) of 60.1 µM and a GI50 (SK-MEL-28 melanoma) of 19.4 µM. For the same compound, the TGI (SK-MEL-28 melanoma) was 43.9 µM, the GI50 (SN12C renal) was 23.1 µM and the TGI (SN12C renal) was 72.7 µM. The GI50 (NCI-H522 lung) was 23.7 µM, the TGI (NCI-H522 lung) was 58.3 µM and the GI50 (MDA-MB-231 breast) was 15 µM. It also gave a TGI (MDA-MB-231 breast) of 42.6 µM, a GI50 (UACC-257 melanoma) of 28.9 µM and a TGI (UACC-257 melanoma) of 71.8 µM. For the same compound, the GI50 (NCI/ADR-RES ovarian) was 43.9 µM, the TGI (NCI/ADR-RES ovarian) was > 100 µM and the GI50 (ACHN renal) was 26.1 µM. For the same compound, the TGI (ACHN renal) was 86.6 µM, the GI50 (K-562 leukemia) was 28.7 µM and the TGI (K-562 leukemia) was > 100 µM. It also gave a GI50 (MALME-3M melanoma) of 25.8 µM, a TGI (MALME-3M melanoma) of 60.1 µM and a GI50 (BT-549 breast) of 22.6 µM. For the same compound, the TGI (BT-549 breast) was 52.9 µM, the GI50 (RXF 393 renal) was 20.6 µM and the TGI (RXF 393 renal) was 42.6 µM. The GI50 (HCC-2998 colon) was 36.4 µM, the TGI (HCC-2998 colon) was > 100 µM and the GI50 (MCF7 breast) was 17.2 µM. It also gave a TGI (MCF7 breast) of 43.9 µM, a GI50 (HOP-92 NSCLC) of 21.9 µM and a TGI (HOP-92 NSCLC) of 63.3 µM. The GI50 (EKVX NSCLC) was 21.8 µM, the TGI (EKVX NSCLC) was 61.7 µM and the GI50 (OVCAR-3 ovarian) was 17.5 µM. The TGI (OVCAR-3 ovarian) was 43.6 µM, the GI50 (OVCAR-8 ovarian) was 30.8 µM and the TGI (OVCAR-8 ovarian) was > 100 µM. For the same compound, the GI50 (IGROV1 ovarian) was 24.1 µM, the TGI (IGROV1 ovarian) was 62.6 µM and the GI50 (OVCAR-5 ovarian) was 21.4 µM. The TGI (OVCAR-5 ovarian) was 54.9 µM, the GI50 (SW-620 colon) was 14.1 µM and the TGI (SW-620 colon) was 54.6 µM. The GI50 (NCI-H226 lung) was 21.8 µM, the TGI (NCI-H226 lung) was 50.5 µM and the GI50 (HCT-116 colon) was 37.6 µM. For the same compound, the TGI (HCT-116 colon) was > 100 µM, the GI50 (COLO 205 colon) was 14.7 µM and the TGI (COLO 205 colon) was 30.6 µM. It also gave a GI50 (LOX IMVI melanoma) of 17.1 µM, a TGI (LOX IMVI melanoma) of 31.7 µM and a GI50 (HOP-62 NSCLC) of 51.2 µM. The TGI (HOP-62 NSCLC) was > 100 µM, the GI50 (TK-10 renal) was 27.8 µM and the TGI (TK-10 renal) was 77.7 µM. For the same compound, the GI50 (SNB-75 CNS) was 21.1 µM, the TGI (SNB-75 CNS) was 52.4 µM and the GI50 (NCI-H460 lung) was 17.8 µM. For the same compound, the TGI (NCI-H460 lung) was 44.6 µM, the GI50 (786-0 renal) was 55 µM and the TGI (786-0 renal) was > 100 µM. The GI50 (SF-268 CNS) was 24.4 µM, the TGI (SF-268 CNS) was 55.9 µM and the GI50 (SNB-19 CNS) was 18.5 µM. The TGI (SNB-19 CNS) was 48.3 µM, the GI50 (M14 melanoma) was 46.1 µM and the TGI (M14 melanoma) was > 100 µM. The GI50 (NCI-H23 lung) was 38.4 µM, the TGI (NCI-H23 lung) was > 100 µM and the GI50 (A498 renal) was 13.5 µM. It also gave a TGI (A498 renal) of 45.3 µM, a GI50 (HS 578T breast) of 17.6 µM and a TGI (HS 578T breast) of 49.2 µM. It also gave a GI50 (SK-MEL-5 melanoma) of 14.7 µM, a TGI (SK-MEL-5 melanoma) of 31.6 µM and a GI50 (HCT-15 colon) of 28.5 µM. The TGI (HCT-15 colon) was > 100 µM, the GI50 (SF-295 CNS) was 18.3 µM and the TGI (SF-295 CNS) was 45 µM. It also gave a GI50 (T-47D breast) of 19.2 µM, a TGI (T-47D breast) of 54 µM and a GI50 (KM12 colon) of 31.8 µM. The TGI (KM12 colon) was > 100 µM, the GI50 (PC-3 prostate) was 29.8 µM and the TGI (PC-3 prostate) was > 100 µM. It also gave a GI50 (SK-MEL-2 melanoma) of 20.1 µM and a TGI (SK-MEL-2 melanoma) of 45.5 µM.
